The values that follow are results of earlier work, collected in the CATMoS acute toxicity set (Mansouri et al. 2021).

Where “and” joins values, the source holds several entries; their conditions need not be identical. Equal values may be shown once.

As usually defined, the LD50 is the dose at which mortality reaches 50%.

A short description of the data set: rat acute oral toxicity. Particulars: in vivo. The source says: […]The data set underlying the modeling effort for this project was initially compiled by NICEATM and U.S. EPA’s CCTE. Briefly, LD50 data were collected from rat acute oral systemic toxicity tests, including limit tests, ranges/confidence intervals, and discrete LD50 values. The full data set included 21,200 LD50 entries for 15,688 substances. […] Data were reviewed to ensure that LD50 values with obvious errors in the extracted data such as unit conversion errors (e.g., comma and decimal separator misplacements) were either fixed or removed. After this review, 16,209 LD50 values remained. Many of the chemicals represented had multiple LD50 entries, requiring that a single representative value per Chemical Abstracts Service Registry Number (CASRN) identifier be defined to facilitate modeling efforts. Based on ATWG feedback and to define the representative LD50 as a protective value while accounting for the distribution across multiple LD50s, the median of the lowest quartile was computed using only discrete LD50 values (omitting limit test data and range and confidence interval data). A detailed summary of the data compilation is available online on the NICEATM webpage dedicated to the collaborative modeling project (NTP 2020).
[…][…] For categorical designations, limit test and range/confidence interval LD50 data were integrated wherever possible. As such, the number of chemicals with end point values/calls varies across the modeling end points (Table 3) based on whether chemicals had representative LD50 values and/or other data. If a chemical had both, the representative value was used to determine categorical calls rather than limit test data. Some data were useable only for certain end points and categories depending on the thresholds. For example, ranges that spanned multiple hazard categories were considered only for the binary (very toxic/nontoxic) end points and omitted from rendering a determination for hazard category assignment.
[…]The final data set comprising 11,992 chemicals was split into training and evaluation sets […], respectively. This process was performed semirandomly by ordering chemicals based on the five end points (categorical and continuous LD50 values) and partitioning every fourth record into the evaluation set accordingly. This approach was taken to ensure an equivalent distribution of the LD50 values and the different hazard categories between the training and the evaluation sets without supervised sampling of the chemicals based on structures (Figure 1A). The sources of the chemical structures were also kept equivalent between the two sets, with chemical structures obtained from DSSTox, being the highest quality, representing over 75% of each set (Figure 1B).
Turning to `COP(=O)(OC)OC(=C(Cl)Br)c1ccc(Cl)cc1Cl`, the median lethal dose (LD50) was 107 mg/kg.

On to `CN(C)CCCOc1nn(Cc2ccccc2)c2ccccc12`, for which the LD50 was 740 mg/kg and 950 mg/kg. Regarding `CCCCCC1=CCCC1=O`, the LD50 was 2200 mg/kg. With `CC[C@@]1(O)C(=O)OCc2c1cc1n(c2=O)Cc2cc3ccccc3nc2-1`, the LD50 is 153 mg/kg. For the compound `COC(=O)c1c(Cl)c(Cl)c(C(=O)OC)c(Cl)c1Cl`, the LD50 is 3000 mg/kg. Consider `C1CCc2nnnn2CC1`, for which the LD50 was 140 mg/kg. `CCCCC(C)=O`: the LD50 was 2590 mg/kg. In the case of `CC1(C)[C@H]2CC[C@](C)(O)[C@@H]1C2`, the median lethal dose (LD50) was 2050 mg/kg. Take `CC(=O)c1ccc(C)cc1`: the LD50 was 1400 mg/kg.

For the compound `O=C(O)CCCCCCCCCl`, the 50% lethal dose (LD50) is 3000 mg/kg. For `CN1CCCCC1CCN1c2ccccc2Sc2ccc(S(C)=O)cc21` (centres undefined), the 50% lethal dose (LD50) is 644 mg/kg. With `CNc1ccc(NCCO)c2c1C(=O)c1ccccc1C2=O`, the 50% lethal dose (LD50) was 1340 mg/kg. For the compound `CC(C)=CCC(CCN1CCCCC1)(C(N)=O)c1cccc2ccccc12` (centres undefined), the LD50 was 57 mg/kg. `CC(C)(Oc1ccc(C2CCCc3ccccc32)cc1)C(=O)O` (centres undefined): the LD50 was 900 mg/kg.

On to `COP(=O)(OC)OC(C)=CC(=O)OCc1ccc(Cl)cc1`, for which the LD50 is 139 mg/kg. Consider `CCCCCCCCCCCCCCCCCC1=NCCN1CCO`, for which the 50% lethal dose (LD50) was 3800 mg/kg. Take `CNC(=O)c1cc(-c2ccccc2)ccc1OCCO`: the median lethal dose (LD50) is 2700 mg/kg. As to `Cc1cc(=O)c2c(C)ccc(C)c2o1`, the LD50 is 2960 mg/kg.

For the compound `NC(=S)SSC(N)=S`, the LD50 is 1950 mg/kg. For `COC1CC=C2CCN3CCC4=C(CC(=O)OC4)C23C1` (centres undefined), the LD50 is 320 mg/kg.

On to `Cc1ccc(C(C)OC(=O)C2(C)CCC(C(=O)O)C2(C)C)cc1` (centres undefined), for which the 50% lethal dose (LD50) is 2810 mg/kg. Regarding `CCOCCc1ccc(OCCN=c2[nH]cnc(CC)c2Cl)c(C)c1C`, the LD50 was 115 mg/kg. On to `COc1ccc2cc([C@H](C)C(=O)OCCN3CCN(Cc4ccc(N)cc4)CC3)ccc2c1`, for which the LD50 is 1600 mg/kg. For the compound `Cc1nccnc1N1CCCCC1`, the LD50 was 730 mg/kg. Consider `CC(C)C(OCCO)C(C)C`, for which the LD50 was 1070 mg/kg. Consider `CCCCC(CC)CN` (centres undefined), for which the LD50 is 450 mg/kg.

In the case of `O=[N+]([O-])c1ccc(O)c(CNCCO)c1`, the median lethal dose (LD50) is 23 mg/kg. In the case of `CCC1OCC(=NOC(=O)NC)S1` (centres undefined), the median lethal dose (LD50) was 60 mg/kg. `C[C@H](CCC(=O)O)[C@H]1CC[C@H]2[C@@H]3CC[C@@H]4C[C@H](O)CC[C@]4(C)[C@H]3C[C@H](O)[C@]12C`: the LD50 is 1370 mg/kg and 1000 mg/kg. As for `CC(C)N1C(=O)c2ccccc2NS1(=O)=O`, the 50% lethal dose (LD50) is 1100 mg/kg.

Take `CC(=O)CC(=O)Nc1ccc(Cl)cc1C`: the median lethal dose (LD50) was 3500 mg/kg. In the case of `COC(N)=O`, the LD50 is 2500 mg/kg. As for `CCCc1ccc2c(c1)OCO2`, the median lethal dose (LD50) is 2260 mg/kg. With `Cc1c(O)cc([N+](=O)[O-])cc1[N+](=O)[O-]`, the LD50 is 25 mg/kg.

For the compound `Cc1cc(Cl)ccc1OC(C)C(=O)N(C)C` (centres undefined), the 50% lethal dose (LD50) was 800 mg/kg. As to `Cc1cccc(C)c1NC(=O)CC12CCCN1CCC2`, the median lethal dose (LD50) was 255 mg/kg. With `O=C=NCc1ccc(CN=C=O)cc1`, the LD50 is 4500 mg/kg. For `CC(N)CSc1ccc(Cl)cc1` (centres undefined), the 50% lethal dose (LD50) is 600 mg/kg. As for `CCCCCOc1c(Br)cc(Br)cc1COCCN(CC)CC`, the LD50 is 350 mg/kg. In the case of `CCC(=O)OC1CCC(N2CCCCC2)CC1` (centres undefined), the 50% lethal dose (LD50) was 1980 mg/kg. Turning to `c1ccc2sc(SNC3CCCCC3)nc2c1`, the 50% lethal dose (LD50) is 5300 mg/kg. For the compound `CC(C)(C)NCC(O)COc1cccc2c1CCC(=O)N2` (centres undefined), the LD50 is 1330 mg/kg. Consider `CCCC(=O)OC(=C(Cl)Cl)P(=O)(OC)OC`, for which the LD50 was 1100 mg/kg. In the case of `Oc1cc(Cl)c(Cl)c(Cl)c1-c1c(Cl)c(Cl)c(Cl)c(Cl)c1OCl`, the median lethal dose (LD50) was 360 mg/kg. Turning to `CN1CCC(N(Cc2ccccc2)c2ccccc2)CC1`, the 50% lethal dose (LD50) is 460 mg/kg.

Regarding `ClCCN(Cc1ccccc1)Cc1ccccc1`, the 50% lethal dose (LD50) is 2400 mg/kg. For the compound `CCC(CC)C(=O)OCC(Br)(Br)Br`, the LD50 is 4000 mg/kg.

Turning to `OC[C@H]1O[C@@H](n2cnc3c(S)ncnc32)[C@H](O)[C@@H]1O`, the LD50 was 900 mg/kg. In the case of `Oc1nc(O)nc(O)n1`, the LD50 is 7700 mg/kg.

As for `COc1ccc(SC#N)c([N+](=O)[O-])c1`, the median lethal dose (LD50) was 3540 mg/kg. Take `CC(C)=CC(=O)O`: the LD50 is 3560 mg/kg. In the case of `CCCC(CCC)C(=O)O`, the LD50 was 670 mg/kg.

For `CC(C)=CC1C(C(=O)O)C1(C)C` (centres undefined), the LD50 is 2500 mg/kg. For `CCOP(=S)(OCC)SC(CBr)N1C(=O)c2ccccc2C1=O` (centres undefined), the LD50 is 18 mg/kg.
